The test has as its system Plasmodium falciparum. Put plainly: Antiplasmodial activity against Plasmodium falciparum 3D7 infected in human erythrocytes by lactate dehydrogenase assay. It counts as functional, organism-based.

Structures are written as SMILES.

These results are taken from ChEMBL document CHEMBL2062508, “Lasionectrin, a naphthopyrone from a Lasionectria sp” (J Nat Prod, 2012).

The compound `CCC[C@@H]1C[C@H]2OC(=O)c3c(cc4cc(OC)cc(O)c4c3O)[C@H]2O1` [LASIONECTRIN] registered an IC50 of 11 µM.
